Earlier results, collected in US20080213381A1, “Oral Drug Delivery System” (PHARMACEUTICAL INDUSTRIES LIMITED, priority 2005, published 2008).

[1] = oral, conventional immediate release dosage form of venlafaxine hydrochloride

time after oral administration at which plasma venlafaxine level is sub-therapeutic (conventional immediate release dosage form): around 12 hours
time at which peak plasma concentration of the active metabolite is achieved [1]: 4 h
time at which peak plasma concentration of venlafaxine is achieved [1]: 2 h
Structure (SMILES): COc1ccc(C(CN(C)C)C2(O)CCCCC2)cc1 (stereo not drawn) [venlafaxine]
